Experiment [1] has as its system A549 lung carcinoma cells. Description: Cell proliferation assay, A549 (CellTiter-Glo, 7 days). Format: cell-based. As to conditions: A549, 7 days, CellTiter-Glo 2.0. The protocol: (§1) HepG2 hepatoma cells (ATCC, HB-8065) were maintained in DMEM with high glucose (Lonza, 12-914F) supplemented with 10% fetal bovine serum (FBS; Biowest, S181B-500) and 2 mM L-glutamine (Biowest, X0551-100) at 37° C. and 5% CO2. A549 lung carcinoma cells (ATCC, CCL-185) were maintained in F-12K medium (ThermoFisher 21127030) supplemented with 10% FBS at 37° C. and 5% CO2. Exponentially growing HepG2 or A549 were plated in white, clear-bottom 96-well plates (Corning, 3903) at a cell density of 2000 (HepG2) or 350 (A549) cells per well in 199 μL of HepG2 medium. Next, 1 μL of a 5-fold 9-point dilution series of test compound in DMSO was added to the different wells. Cells were incubated at 37° C. 5% CO2 for 7 days. Cell viability was assessed on day 7 with the CellTiter-Glo 2.0 Cell Viability assay kit (Promega, G9243) to quantify the intracellular amounts of ATP: first, 100 μL of cell culture medium was removed from each well, next 100 μL of CellTiter-Glo® 2.0 Reagent was added and plates were shaken for 2 minutes on an orbital shaker. After 10 minutes stabilization at room temperature, read-out was performed on a ThermoFisher VarioSkan Lux plate reader. Counts were normalized to DMSO control (0% inhibition) and the cytotoxic control (100% inhibition) and EC50 values were determined in GraphPad Prism 8 using the [Agonist] vs. response—Variable slope (four parameters) function.
(§2) As shown by the data of Table 2, compounds of Formula (I) have activity in this assay. A value of ‘A’ in the table below indicates an EC50 of <20 nM, a value of ‘B’ indicates an EC50≥20 nM to <100 nM, a value of ‘C’ indicates an EC50 value of EC50≥100 nM to <1000 nM and a value of ‘D’ indicates an EC50≥1000 nM

For experiment [2], the target named is T1, PRMT5/MEP50 (Homo sapiens (Human), UniProt O14744). Description: PRMT5/MEP50 enzyme inhibition assay, Assay 2 (384-well, MALDI mass spectrometry, histone H4 1-21 peptide). Format: biochemical. The settings on record: 1 μM SAM, 0.1 μM histone H4 1-21 peptide, 18-hour incubation at rt. As for the experimental part:
Compounds were tested for inhibition of methyltransferase activity in 384-well plate assay format using mass spectrometry technology. In this enzyme inhibition assay, compounds were tested in a 11-dose IC50 mode with 3-serial dilution, in duplicate, starting at 1, 10, or 100 μM. Reactions were carried out at 1 μM SAM and 0.1 μM histone H4 1-21 peptide as substrates for methyl transfer. Following an 18-hour incubation at rt, the reaction was stopped with 0.5% formic acid. Products of the reaction were captured while unreacted substrates were washed away, prior to MALDI mass spectrometry detection and analysis. Percent enzyme activity was calculated based on no inhibitor DMSO control as 100% activity. EC50 values were determined in GraphPad Prism 8 using the [inhibitor] vs. response—Variable slope (four parameters) function.
(§3) Compounds of Formula (I) show activity in this assay. A value of ‘A’ in the table below indicates an IC50 of <1 nM, a value of ‘B’ indicates an IC50≥1 nM to ≤100 nM, and a value of ‘C’ indicates an IC50 value of >100 nM.

The test system of a further experiment is HepG2 hepatoma cells. Description: Cell proliferation assay, HepG2 (CellTiter-Glo, 7 days). The settings on record: HepG2, 7 days, CellTiter-Glo 2.0. Format: cell-based. The protocol:
as §1, §2

Experiment [3] addresses T1, PRMT5/MEP50. As to the kind of experiment: PRMT5/MEP50 enzyme inhibition assay, Assay 1 (radioisotope filter binding, 3H-SAM, histone H2A). The format is biochemical. The settings on record: 1 μM 3H-SAM, 5 μM histone H2A, 60 min at 30° C. The protocol:
Compounds were tested for inhibition of methyltransferase activity in a radioisotope filter binding assay, similar to previously described in A selective inhibitor of PRMT5 with in vivo and in vitro potency in MCL models. Chan-Penebre et al., Nat Chem Biol. (2015) 11(6):432-7. In the standard PRMT5/MEP50 enzyme inhibition assay, compounds were tested in a 10-dose IC50 mode with 3- or 5-fold serial dilution, in singlet, starting at 1, 10, or 100 μM. Control compound, SAH (S-(5′-Adenosyl)-L-homocysteine), was tested in 10-dose IC50 mode with 3-fold serial dilution starting at 100 μM. Reactions were carried out at 1 μM 3H-SAM (PerkinElmer) and 5 μM histone H2A as substrates for methyl transfer. Following a 60 min incubation at 30° C., the reaction was stopped with 20% TCA. Each reaction was spotted on a filter plate (Multiscreen FB Filter plate, Millipore) and washed 5 times in PBS, after which scintillation fluid was added and signal was detected in a scintillation counter. Percent enzyme activity was calculated based on no inhibitor DMSO control as 100% activity. EC50 values were determined in GraphPad Prism 8 using the [inhibitor] vs. response—Variable slope (four parameters) function.
as §3

Drawing on patent US11198699B2 (ALIGOS THERAPEUTICS, INC., priority 2019, dated 2021), this text covers EC50 and IC50 for 16 compounds.

T1 sequence (O14744 whole entry): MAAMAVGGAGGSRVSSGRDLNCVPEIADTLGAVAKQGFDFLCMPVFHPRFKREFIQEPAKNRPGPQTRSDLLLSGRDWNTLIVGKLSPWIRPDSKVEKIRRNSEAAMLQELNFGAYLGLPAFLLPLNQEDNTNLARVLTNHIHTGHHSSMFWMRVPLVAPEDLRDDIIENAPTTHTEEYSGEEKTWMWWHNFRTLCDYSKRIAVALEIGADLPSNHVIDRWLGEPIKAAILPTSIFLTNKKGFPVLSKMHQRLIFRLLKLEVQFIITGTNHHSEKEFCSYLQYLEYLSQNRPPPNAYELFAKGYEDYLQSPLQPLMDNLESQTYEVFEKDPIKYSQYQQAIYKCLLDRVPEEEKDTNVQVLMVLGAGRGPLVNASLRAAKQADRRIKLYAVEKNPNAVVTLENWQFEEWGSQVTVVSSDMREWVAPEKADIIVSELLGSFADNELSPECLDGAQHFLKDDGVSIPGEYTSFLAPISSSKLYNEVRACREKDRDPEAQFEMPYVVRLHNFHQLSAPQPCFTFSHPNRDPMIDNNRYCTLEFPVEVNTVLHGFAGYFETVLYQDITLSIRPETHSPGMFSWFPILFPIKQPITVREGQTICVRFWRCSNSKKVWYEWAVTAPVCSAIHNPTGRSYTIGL
T1 sequence (Q9BQA1 whole entry partner): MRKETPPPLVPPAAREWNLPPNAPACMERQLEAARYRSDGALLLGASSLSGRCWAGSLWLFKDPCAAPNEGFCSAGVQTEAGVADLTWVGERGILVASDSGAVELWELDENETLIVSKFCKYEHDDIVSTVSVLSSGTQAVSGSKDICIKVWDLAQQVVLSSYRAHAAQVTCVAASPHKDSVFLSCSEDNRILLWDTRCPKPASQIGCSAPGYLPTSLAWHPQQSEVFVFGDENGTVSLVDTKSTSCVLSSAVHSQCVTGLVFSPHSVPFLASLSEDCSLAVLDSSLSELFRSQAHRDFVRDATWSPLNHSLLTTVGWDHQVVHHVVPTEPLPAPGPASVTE

Consider `Nc1nc2cc(OC[C@@]3(F)C[C@@H](n4ccc5c(N)ncnc54)[C@H](O)[C@@H]3O)ccc2cc1Br` [Compound 9, (1S,2S,3S,5R)-3-[(2-amino-3-bromo-7-quinolyl)oxymethyl]-5-(4-aminopyrrolo[2,3-d]pyrimidin-7-yl)-3-fluoro-cyclopentane-1,2-diol], for which the EC50 in experiment [1] (Homo sapiens, A549, 168 h) lay in the range of 20 to 100 nM; with HepG2 hepatoma cells (Homo sapiens, 168 h), 20 to 100 nM. Moreover, the concentration for half-maximal inhibition (IC50) against PRMT5/MEP50 [2] and on PRMT5/MEP50 [3] was below 1 nM each time.
As to `C[C@@H]1[C@H](CCc2ccc3ccc(N)nc3c2)[C@@H](O)[C@@H](O)[C@@H]1n1ccc2c(N)ncnc21` [Compound 6], the EC50 (in experiment [1]; with HepG2 hepatoma cells) was at least 1000 nM each time. Besides, the half-inhibitory concentration (IC50) on PRMT5/MEP50 [2] and at PRMT5/MEP50 [3] was 1 to 100 nM each time.
Take `C[C@]1(CCc2ccc3cc(C4CC4)c(N)nc3c2)C[C@@H](n2ccc3c(N)ncnc32)[C@H](O)[C@@H]1O` [Compound 14, (1S,2R,3S,5R)-3-[2-(2-amino-3-cyclopropyl-7-quinolyl)ethyl]-5-(4-aminopyrrolo[2,3-d]pyrimidin-7-yl)-3-methylcyclopentane-1,2-diol]: the concentration for a half-maximal effect (EC50) in experiment [1] (Homo sapiens, A549, 168 h) was below 20 nM; with HepG2 hepatoma cells (Homo sapiens, 168 h) it was below 20 nM. In addition, the IC50 against PRMT5/MEP50 [2] and on PRMT5/MEP50 [3] was below 1 nM each time.
For the compound `Nc1nc2cc(CC[C@@]34C[C@@H]3[C@@H](n3ccc5c(N)ncnc53)[C@H](O)[C@@H]4O)ccc2cc1Br` [Compound 2], the half-maximal effective concentration (EC50) (in experiment [1]; in the experiment on HepG2 hepatoma cells) was below 20 nM throughout. In addition, the half-inhibitory concentration (IC50) at PRMT5/MEP50 [2] and on PRMT5/MEP50 [3] was below 1 nM in each case.
In the case of `Nc1ncnc2c1ccn2[C@H]1[C@H](O)[C@H](O)[C@]2(C(O)c3ccc(Cl)c(Cl)c3)C[C@H]12` (single isomer, unassigned) [Compound 7, (1R,2R,3S,4R,5S)-4-(4-aminopyrrolo[2,3-d]pyrimidin-7-yl)-1-[(R or S)-(3,4-dichlorophenyl)-hydroxy-methyl]bicyclo[3.1.0]hexane-2,3-diol], the EC50 in experiment [1] lay in the range of 100 to 1000 nM; in the experiment with HepG2 hepatoma cells (Homo sapiens, 168 h) it was 100 to 1000 nM. The figures for the half-inhibitory concentration (IC50) at PRMT5/MEP50 [2] and at PRMT5/MEP50 [3] were 1 to 100 nM and below 1 nM, respectively.
Take `Nc1ccc2ccc(CC[C@@]34C[C@@H]3[C@@H](n3ccc5c(N)ncnc53)[C@H](O)[C@@H]4O)cc2n1` [Compound 13, (1R,2R,3S,4R,5S)-4-(4-aminopyrrolo[2,3-d]pyrimidin-7-yl)-1-[2-(2-amino-7-quinolyl)ethyl]bicyclo[3.1.0]hexane-2,3-diol]: the EC50 in experiment [1] (Homo sapiens, A549, 168 h) is below 20 nM; in the experiment with HepG2 hepatoma cells (Homo sapiens, 168 h) it was below 20 nM. The concentration for half-maximal inhibition (IC50) on PRMT5/MEP50 [2] and on PRMT5/MEP50 [3] was below 1 nM each time.
As for `Nc1nc2cc(OC[C@H]3C[C@@H](n4ccc5c(N)ncnc54)[C@H](F)[C@@H]3O)ccc2cc1Br` [Compound 11, (1R,2S,3R,5R)-5-[(2-amino-3-bromo-7-quinolyl)oxymethyl]-3-(4-aminopyrrolo[2,3-d]pyrimidin-7-yl)-2-fluoro-cyclopentanol], the EC50 in experiment [1] (Homo sapiens, A549, 168 h) is at least 1000 nM; in the experiment with HepG2 hepatoma cells (Homo sapiens, 168 h) it was 100 to 1000 nM. Moreover, the IC50 at PRMT5/MEP50 [2] was 1 to 100 nM; at PRMT5/MEP50 [3], above 100 nM.
Turning to `Nc1ncnc2c1ccn2[C@H]1[C@H](O)[C@H](O)[C@]2(C(O)c3ccc(Cl)c(Cl)c3)C[C@H]12` (single isomer, unassigned) [Compound 8, (1R, 2R, 3S, 4R, 5S)-4-(4-aminopyrrolo[2,3-d]pyrimidin-7-yl)-1-[(S or R)-(3,4-dichlorophenyl)-hydroxy-methyl]bicyclo[3.1.0]hexane-2,3-diol], the EC50 was at least 1000 nM in experiment [1] and 100 to 1000 nM with HepG2 hepatoma cells. The IC50 against PRMT5/MEP50 [2] is above 100 nM; at PRMT5/MEP50 [3], 1 to 100 nM.
The corresponding values for `C=C1[C@@H](n2ccc3c(N)ncnc32)[C@H](O)[C@H](O)[C@H]1CCc1ccc2cc(Br)c(Cl)nc2c1` [Compound 3] are 100 to 1000 nM, 100 to 1000 nM, above 100 nM and above 100 nM.
Turning to `C[C@H]1[C@H](CCc2ccc3ccc(N)nc3c2)[C@@H](O)[C@@H](O)[C@@H]1n1ccc2c(N)ncnc21` [Compound 5], the concentration for a half-maximal effect (EC50) (in experiment [1]; in the experiment with HepG2 hepatoma cells) was 100 to 1000 nM in each case. The IC50 on PRMT5/MEP50 [2] and at PRMT5/MEP50 [3] was below 1 nM throughout.
With `C=C1[C@@H](n2ccc3c(N)ncnc32)[C@H](O)[C@H](O)[C@H]1CCc1ccc2cc(Br)c(N)nc2c1` [Compound 4], the EC50 (in experiment [1]; in the experiment with HepG2 hepatoma cells) was below 20 nM throughout. Also, the half-inhibitory concentration (IC50) on PRMT5/MEP50 [2] and on PRMT5/MEP50 [3] was below 1 nM in each case.
`Cc1cc2ccc(CC[C@@]3(C)C[C@@H](n4ccc5c(N)ncnc54)[C@H](O)[C@@H]3O)cc2nc1N` [Compound 10, (1S,2R,3S,5R)-3-[2-(2-amino-3-methyl-7-quinolyl)ethyl]-5-(4-aminopyrrolo[2,3-d]pyrimidin-7-yl)-3-methyl-cyclopentane-1,2-diol]: the concentration for a half-maximal effect (EC50) in experiment [1] (Homo sapiens, A549, 168 h) is below 20 nM; with HepG2 hepatoma cells (Homo sapiens, 168 h), below 20 nM. Also, the IC50 at PRMT5/MEP50 [2] and at PRMT5/MEP50 [3] was below 1 nM in each case.
For the compound `C[C@]1(/C=C/c2ccc3cc(Br)c(N)nc3c2)C[C@@H](n2ccc3c(N)ncnc32)[C@H](O)[C@@H]1O` [Compound 1], the IC50 at PRMT5/MEP50 [3] was below 1 nM.
As for `Nc1nc2cc(OC[C@@]34C[C@@H]3[C@@H](n3ccc5c(N)ncnc53)[C@H](O)[C@@H]4O)ccc2cc1Br` [Compound 15, (1R,2R,3S,4R,5S)-1-[(2-amino-3-bromo-7-quinolyl)oxymethyl]-4-(4-aminopyrrolo[2,3-d]pyrimidin-7-yl)bicyclo[3.1.0]hexane-2,3-diol], the EC50 in experiment [1] (Homo sapiens, A549, 168 h) lay in the range of 100 to 1000 nM; with HepG2 hepatoma cells (Homo sapiens, 168 h) it was 100 to 1000 nM. Also, the IC50 at PRMT5/MEP50 [2] was below 1 nM.
With `C[C@]1(CCc2ccc3ccc(N)nc3c2)C[C@@H](n2ccc3c(N)ncc(F)c32)[C@H](O)[C@@H]1O` [Compound 21, (1S,2R,3S,5R)-5-(4-amino-7-fluoro-pyrrolo[3,2-c]pyridin-1-yl)-3-[2-(2-amino-7-quinolyl)ethyl]-3-methyl-cyclopentane-1,2-diol], the half-maximal effective concentration (EC50) in experiment [1] (Homo sapiens, A549, 168 h) is below 20 nM; in the experiment on HepG2 hepatoma cells (Homo sapiens, 168 h) it was below 20 nM. At PRMT5/MEP50 [2], this compound displayed an IC50 below 1 nM.
As to `C[C@]1(CCc2ccc3ccc(N)nc3c2)C[C@@H](n2ccc3c(N)ncnc32)[C@H](O)[C@@H]1O` [Compound 12, (1S,2R,3S,5R)-5-(4-amino-7H-pyrrolo[2,3-d]pyrimidin-7-yl)-3-(2-(2-aminoquinolin-7-yl)ethyl)-3-methylcyclopentane-1,2-diol], the EC50 in experiment [1] (Homo sapiens, A549, 168 h) is below 20 nM; in the experiment with HepG2 hepatoma cells (Homo sapiens, 168 h), below 20 nM. Besides, the IC50 at PRMT5/MEP50 [2] and at PRMT5/MEP50 [3] was below 1 nM each time.

One may read the EC50 as the concentration needed to bring the measured effect to its halfway point. Low values mean greater potency, high ones weaker potency. In general, IC50 refers to the concentration needed to halve the response being measured. Higher therefore signals a need for much substance.
